Patent publication US4504470A, “Pharmaceutical preparations containing TRH or its analogue” (Takeda Chemical Industries, Ltd., priority 1981, dated 1985)
Read-outs that look alike come from different tables or passages of the source.

Key:
[1] = Absorption of DN-1417 (14C-DN-1417) administered by various routes to rats, plasma AUC; type: in vivo; settings: for bioavailability as compared with subcutaneous application: no absorption enhancer, 2 mg/kg
Description: Male rats of SD strain weighing ca. 300 g, which had been fasted for 24 hours, were dosed with an amount of ^14 C-DN-1417 corresponding to 2 mg/kg of DN-1417 by the rectal, nasal, oral cavity and oral routes. The dosage form for nasal, oral cavity or oral administration was either an aqueous solution or an oil solution, and for nasal administration, 0.02 ml of the solution was given with a micropipette; for oral cavity application, a wad of cotton soaked with 0.02 ml of the solution was sublingually administered; and for oral administration, 1 ml of the solution was given by gavage. For rectal administration, 0.1 ml of an aqueous solution was given using a pipette. In the case of a polyethylene glycol suppository and Witepsol W-35 (Dynamit Nobel Chemicals, West Germany) suppository, 50 mg of either suppository was deposited 1.5 cm from the anus.
After administration, 0.2 ml of blood was taken from the cordal vein at timed intervals and the plasma radioactivity was measured with a scintillation counter. Separation of the unmetabolized compound from metabolites was performed by thin-layer electrophoresis. For the evaluation of absorption rates, the area under a curve of the plasma concentration of DN-1417 over a period of 6 hours after administration [AUC (0-6 hr.)] was compared with the corresponding value obtained by subcutaneous administration to calculate the bioavailability of the drug.

[2] = design: species or system rats; settings: rat, in vivo; for AUC (0-2 hr.): po, 2 mg/kg
Description: Using male SD-strain rats weighing ca. 300 g which had been fasted for 24 hours in groups of 3 animals, an amount of ^3 H-TRH equivalent to 2 mg/kg of TRH was administered by the rectal, nasal and oral routes.
The method and volume of administration, the method of collecting blood samples and the method of determination were all the same as described in Experimental Example 1. Evaluation of absorption ratio was made using as a parameter the plasma level of TRH.

SMILES	effect on absorption ([1]; addition of a hydroxycarboxylic acid)	effect on absorption ([1]; addition of amino acids, lecithin, etc.)	bioavailability as compared with subcutaneous application ([1]; nasal) [%]	bioavailability as compared with subcutaneous application ([1]; rectal) [%]	absorption from the rectal and nasal mucosa [2]	AUC (0-2 hr.) ([2]; pH 2.1) [ng·h/mL]	AUC (0-2 hr.) ([2]; pH 3.2) [ng·h/mL]
NC(=O)[C@@H]1CCCN1C(=O)[C@H](Cc1c[nH]cn1)NC(=O)C1CCC(=O)O1 (stereo partly drawn) [DN-1417, γ-butyrolactone-γ-carbonyl-L-histidyl-L-prolinamide]	remarkable improvement in absorption	does not result in any significant improvement of absorption	21	25	–	–	–
NC(=O)[C@@H]1CCCN1C(=O)[C@H](Cc1cnc[nH]1)NC(=O)[C@@H]1CCC(=O)N1 [TRH, L-pyroglutamyl-L-histidyl-L-prolinamide]	–	–	–	–	enhanced	1100	700
